Each structure is given as a SMILES string. Where “and” joins values, the source holds several entries; their conditions need not be identical. Identical values can stand only once. Inconclusive results and toxic doses are left out.

In the experiment the test system is L1210 leukemia ip in BDF1 mice, survival T/C. Nature of the experiment: NCI In Vivo Anticancer Drug Screen. Data for tumor model L1210 Leukemia (intraperitoneal) in B6D2F1 (BDF1) mice. Particulars: endpoint: mean survival time, higher = longer survival. Summed up: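 Mice bearing the transplanted tumor received compound or vehicle. Survival of the treated group was divided by that of the vehicle-treated control group to give the ratio.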

In the case of `O=C(NP(=O)(N1CC1)N1CC1)c1cc(I)ccc1I`, the T/C runs as follows: (dose: 1.0 mg/kg/injection, schedule: Q01DX001 (ip), vehicle: saline with Tween-80) 99 % of control; (dose: 1.0 mg/kg/injection, schedule: Q01DX001 (ip), vehicle: saline) 95 % of control and 98 % of control; (dose: 1.0 mg/kg/injection, schedule: Q01DX001 (oral), vehicle: saline with Tween-80) 106 % of control; (dose: 1.0 mg/kg/injection, schedule: Q01DX001 (oral), vehicle: saline) 97 % of control; (dose: 1.0 mg/kg/injection, schedule: Q01DX009 (ip), vehicle: saline with Tween-80) 103 % of control; (dose: 1.0 mg/kg/injection, schedule: Q01DX009 (ip), vehicle: saline) 97 % of control. Moreover, the T/C runs as follows: (dose: 1.0 mg/kg/injection, schedule: Q04DX003 (ip), vehicle: saline with Tween-80) 107 % of control; (dose: 1.0 mg/kg/injection, schedule: Q04DX003 (ip), vehicle: saline) 104 % of control and 111 % of control; (dose: 2.0 mg/kg/injection, schedule: Q01DX001 (ip), vehicle: saline with Tween-80) 93 % of control; (dose: 2.0 mg/kg/injection, schedule: Q01DX001 (ip), vehicle: saline) 100 % of control and 110 % of control; (dose: 2.0 mg/kg/injection, schedule: Q01DX001 (oral), vehicle: saline with Tween-80) 100 % of control; (dose: 2.0 mg/kg/injection, schedule: Q01DX001 (oral), vehicle: saline) 94 % of control. Besides, the T/C is 105 % of control (dose: 2.0 mg/kg/injection, schedule: Q01DX009 (ip), vehicle: saline with Tween-80); 97 % of control and 111 % of control (dose: 2.0 mg/kg/injection, schedule: Q04DX003 (ip), vehicle: saline); 97 % of control (dose: 4.0 mg/kg/injection, schedule: Q01DX001 (ip), vehicle: saline with Tween-80); 100 % of control and 108 % of control (dose: 4.0 mg/kg/injection, schedule: Q01DX001 (ip), vehicle: saline); 107 % of control (dose: 4.0 mg/kg/injection, schedule: Q01DX001 (oral), vehicle: saline with Tween-80); 92 % of control (dose: 4.0 mg/kg/injection, schedule: Q01DX001 (oral), vehicle: saline). The T/C (dose: 4.0 mg/kg/injection, schedule: Q01DX009 (ip), vehicle: saline with Tween-80) is 101 % of control; the T/C (dose: 4.0 mg/kg/injection, schedule: Q04DX003 (ip), vehicle: saline with Tween-80) is 101 % of control; the T/C (dose: 4.0 mg/kg/injection, schedule: Q04DX003 (ip), vehicle: saline) was 97 % of control; the T/C (dose: 8.0 mg/kg/injection, schedule: Q01DX001 (ip), vehicle: saline with Tween-80) is 101 % of control; the T/C (dose: 8.0 mg/kg/injection, schedule: Q01DX001 (ip), vehicle: saline) was 99 % of control and 118 % of control; the T/C (dose: 8.0 mg/kg/injection, schedule: Q01DX001 (oral), vehicle: saline with Tween-80) was 101 % of control. Further, the T/C runs as follows: (dose: 8.0 mg/kg/injection, schedule: Q01DX001 (oral), vehicle: saline) 90 % of control; (dose: 8.0 mg/kg/injection, schedule: Q01DX009 (ip), vehicle: saline with Tween-80) 121 % of control; (dose: 8.0 mg/kg/injection, schedule: Q04DX003 (ip), vehicle: saline with Tween-80) 115 % of control; (dose: 8.0 mg/kg/injection, schedule: Q04DX003 (ip), vehicle: saline) 102 % of control; (dose: 16.0 mg/kg/injection, schedule: Q01DX001 (ip), vehicle: saline with Tween-80) 109 % of control; (dose: 16.0 mg/kg/injection, schedule: Q01DX001 (ip), vehicle: saline) 100 % of control and 121 % of control. Besides, the T/C is 102 % of control (dose: 16.0 mg/kg/injection, schedule: Q01DX001 (oral), vehicle: saline with Tween-80); 97 % of control (dose: 16.0 mg/kg/injection, schedule: Q01DX001 (oral), vehicle: saline); 104 % of control (dose: 16.0 mg/kg/injection, schedule: Q04DX003 (ip), vehicle: saline); 112 % of control (dose: 32.0 mg/kg/injection, schedule: Q01DX001 (ip), vehicle: saline with Tween-80); 99 % of control and 110 % of control (dose: 32.0 mg/kg/injection, schedule: Q01DX001 (ip), vehicle: saline); 101 % of control (dose: 32.0 mg/kg/injection, schedule: Q01DX001 (oral), vehicle: saline with Tween-80). The T/C was 96 % of control (dose: 32.0 mg/kg/injection, schedule: Q01DX001 (oral), vehicle: saline); 155 % of control (dose: 32.0 mg/kg/injection, schedule: Q01DX009 (ip), vehicle: saline with Tween-80); 162 % of control (dose: 32.0 mg/kg/injection, schedule: Q01DX009 (ip), vehicle: saline); 111 % of control (dose: 64.0 mg/kg/injection, schedule: Q01DX001 (ip), vehicle: saline with Tween-80); 105 % of control and 116 % of control (dose: 64.0 mg/kg/injection, schedule: Q01DX001 (ip), vehicle: saline); 98 % of control (dose: 64.0 mg/kg/injection, schedule: Q01DX001 (oral), vehicle: saline with Tween-80). Besides, the T/C was 100 % of control (dose: 64.0 mg/kg/injection, schedule: Q01DX001 (oral), vehicle: saline); 112 % of control (dose: 64.0 mg/kg/injection, schedule: Q01DX009 (ip), vehicle: saline with Tween-80); 183 % of control (dose: 64.0 mg/kg/injection, schedule: Q01DX009 (ip), vehicle: saline); 123 % of control (dose: 128.0 mg/kg/injection, schedule: Q01DX001 (ip), vehicle: saline with Tween-80); 114 % of control (dose: 128.0 mg/kg/injection, schedule: Q01DX001 (ip), vehicle: saline); 109 % of control (dose: 128.0 mg/kg/injection, schedule: Q01DX001 (oral), vehicle: saline with Tween-80). Moreover, the T/C was 93 % of control (dose: 128.0 mg/kg/injection, schedule: Q01DX001 (oral), vehicle: saline); 95 % of control (dose: 128.0 mg/kg/injection, schedule: Q01DX009 (ip), vehicle: saline); 176 % of control (dose: 128.0 mg/kg/injection, schedule: Q04DX003 (ip), vehicle: saline with Tween-80); 151 % of control and 159 % of control (dose: 128.0 mg/kg/injection, schedule: Q04DX003 (ip), vehicle: saline); 124 % of control (dose: 256.0 mg/kg/injection, schedule: Q01DX001 (ip), vehicle: saline); 120 % of control (dose: 256.0 mg/kg/injection, schedule: Q01DX001 (oral), vehicle: saline). Further, the T/C is 105 % of control (dose: 256.0 mg/kg/injection, schedule: Q04DX003 (ip), vehicle: saline with Tween-80); 164 % of control (dose: 256.0 mg/kg/injection, schedule: Q04DX003 (ip), vehicle: saline); 99 % of control (dose: 512.0 mg/kg/injection, schedule: Q01DX001 (ip), vehicle: saline with Tween-80); 122 % of control (dose: 512.0 mg/kg/injection, schedule: Q01DX001 (oral), vehicle: saline); 100 % of control (dose: 512.0 mg/kg/injection, schedule: Q04DX003 (ip), vehicle: saline).
Turning to `CSc1nc(Cl)cc(N2CC2C)n1` (configuration not stated), for the setting “dose: 25.0 mg/kg/injection, schedule: Q01DX Z (ip), vehicle: methylcellulose (MC)”, the T/C was 96 % of control.
Turning to `CCCCCCCCCCCCCCCCS(=O)(=O)N/N=C(/c1cccc(N)c1)N1CCCCC1`, the T/C (dose: 50.0 mg/kg/injection, schedule: Q04DX003 (ip), vehicle: saline with Tween-80) is 87 % of control; the T/C (dose: 100.0 mg/kg/injection, schedule: Q04DX003 (ip), vehicle: saline with Tween-80) was 90 % of control; the T/C (dose: 400.0 mg/kg/injection, schedule: Q04DX003 (ip), vehicle: saline with Tween-80) is 88 % of control.
Consider `Nc1nc(SCC(=O)c2ccc(Cl)cc2)c2c(n1)SCC(c1ccc(Cl)cc1)=N2`, for which the T/C is 97 % of control (dose: 100.0 mg/kg/injection, schedule: Q01DX001 (ip), vehicle: saline with Tween-80); 101 % of control (dose: 200.0 mg/kg/injection, schedule: Q01DX001 (ip), vehicle: saline with Tween-80); 92 % of control (dose: 400.0 mg/kg/injection, schedule: Q01DX001 (ip), vehicle: saline with Tween-80).
Consider `CCCCCCCCOc1ccc(C2=NN(c3ccccc3)C(=O)C2)cc1`, for which the T/C by setting is: (dose: 50.0 mg/kg/injection, schedule: Q04DX003 (ip), vehicle: Klucel (hydroxypropylcellulose) (HPC)) 110 % of control; (dose: 100.0 mg/kg/injection, schedule: Q01DX001 (ip), vehicle: Klucel (hydroxypropylcellulose) (HPC)) 96 % of control; (dose: 100.0 mg/kg/injection, schedule: Q04DX003 (ip), vehicle: Klucel (hydroxypropylcellulose) (HPC)) 90 % of control; (dose: 200.0 mg/kg/injection, schedule: Q01DX001 (ip), vehicle: Klucel (hydroxypropylcellulose) (HPC)) 100 % of control; (dose: 200.0 mg/kg/injection, schedule: Q04DX003 (ip), vehicle: Klucel (hydroxypropylcellulose) (HPC)) 100 % of control; (dose: 400.0 mg/kg/injection, schedule: Q01DX001 (ip), vehicle: Klucel (hydroxypropylcellulose) (HPC)) 102 % of control.

Source of the values: PubChem BioAssay AID248 (DTP/NCI, 2004).
